Results as given in patent US7524487B2, “Compositions and methods for modulating interleukin-10” (University of Maryland, priority 2005, dated 2009).

System: IL-10 promoter
Experiment: DNase I accessibility of the IL-10 promoter (nucleosome −2) by QRT-PCR
Assay type: cell-based, mice
Settings: BMMφ pre-treated with PD98059 15 μM for 1 hour, IC plus LPS 10 ng/mL for 60 min
Procedure: FIG. 23 are graphs showing enhanced chromatin accessibility following ERK activation. (A) BMMφ were stimulated with IC plus LPS (10 ng/mL) for 0, 15, 30, 60, and 120 min. Nuclei were isolated at each time point post-stimulation and treated with or without MNase. DNA was purified and analyzed for the presence of sequences corresponding to nucleosomes −2 and −12 by QRT-PCR. The data were graphically plotted as percentage of MNase accessibility relative to the samples of stimulation at zero time point. (B) BMMφwere pre-treated with PD98059 (15 μM) (open bars) or drug vehicle control (solid bars) for 1 hour and then stimulated with IC plus LPS (10 ng/mL) for 60 min. Nuclei were isolated from each group and treated with or without DNase I followed by extraction of genomic DNA. […] The data were expressed as percentage of DNase I accessibility relative to undigested genomic DNA sample and graphically plotted for each treated group. […]
DNase I sensitivity assayed by Real-time PCR. DNase I accessibility was determined as previously described (Goriely, et al. 2003. Blood 101:4894-4902; Rao, et al. 2001. J. Immunol. 167:4494-4503.) with minor modifications. […]
MNase accessibility assay was performed on cells grown in 100-mm tissue culture dishes that were stimulated with LPS/IC. […] DNase I accessibility was determined as previously described (Lucas, M., X. Zhang, et al. 2005. J. Immunol. 175:469).

## COc1cccc(-c2cc(=O)c3ccccc3o2)c1N [PD98059]
  reduction of sensitivity to DNase I at nucleosome −2: greater than half
